Laboratory results taken from US7012094B1, “Substituted furans and furanones for the treatment of inflammation” (G.D. Searle, LLC, priority 1994, dated 2006).
Marks after values point to notes of the source that are not given here.

Key:
[1] = test system: carrageenan-induced hyperalgesic foot withdrawal; experiment: Rat carrageenan-induced analgesia test; assay type: in vivo; details: oral, 3 mpk (footnote *); 3 h after carrageenan
Protocol: The analgesia test using rat carrageenan was performed with materials, reagents and procedures essentially as described by Hargreaves, et al., (Pain, 32, 77 (1988)). Male Sprague-Dawley rats were treated as previously described for the Carrageenan Foot Pad Edema test. Three hours after the injection of the carrageenan, the rats were placed in a special plexiglass container with a transparent floor having a high intensity lamp as a radiant heat source, positionable under the floor. After an initial twenty minute period, thermal stimulation was begun on either the injected foot or on the contralateral uninjected foot. A photoelectric cell turned off the lamp and timer when light was interrupted by paw withdrawal. The time until the rat withdraws its foot was then measured. The withdrawal latency in seconds was determined for the control and drug-treated groups, and percent inhibition of the hyperalgesic foot withdrawal determined.

[2] = molecular target: T1, Murine COX II (Mus musculus, UniProt Q05769); experiment: COX II activity in vitro (PGE2 ELISA, recombinant enzyme); assay type: biochemical; details: arachidonic acid 10 μM, read-out: Murine COX II ID50
T1 construct: coding region of either human or murine COX-I or human or murine COX-II was cloned; made in house; host or cells: SF9 insect cells (baculovirus, pVL1393)
T1 sequence (Q05769 18-604): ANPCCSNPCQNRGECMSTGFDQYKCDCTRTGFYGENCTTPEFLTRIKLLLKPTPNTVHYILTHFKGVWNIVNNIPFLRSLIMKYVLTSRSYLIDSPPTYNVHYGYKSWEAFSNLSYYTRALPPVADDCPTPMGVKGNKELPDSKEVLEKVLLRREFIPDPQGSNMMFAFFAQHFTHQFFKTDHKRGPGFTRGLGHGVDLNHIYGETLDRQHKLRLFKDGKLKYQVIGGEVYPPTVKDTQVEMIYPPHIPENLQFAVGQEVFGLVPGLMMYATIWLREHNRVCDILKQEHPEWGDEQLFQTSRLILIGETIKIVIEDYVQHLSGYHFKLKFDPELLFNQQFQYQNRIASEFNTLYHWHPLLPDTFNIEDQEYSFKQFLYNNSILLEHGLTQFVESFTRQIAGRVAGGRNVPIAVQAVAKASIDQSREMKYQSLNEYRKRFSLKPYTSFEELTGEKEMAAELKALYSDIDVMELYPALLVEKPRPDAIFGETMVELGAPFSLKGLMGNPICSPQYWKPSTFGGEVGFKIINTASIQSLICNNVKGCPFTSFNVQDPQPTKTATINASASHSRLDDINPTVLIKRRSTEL
Protocol: A 2.0 kb fragment containing the coding region of either human or murine COX-I or human or murine COX-II was cloned into a BamH1 site of the baculovirus transfer vector pVL1393 to generate the baculovirus transfer vector. Recombinant baculoviruses were isolated by transfecting 4 μg of baculovirus transfer vector DNA into SF9 cells (2×10e8) along with 200 ng of linearized baculovirus plasmid DNA by the calcium phosphate method. […] The homogenate was centrifuged at 10,000×G for 30 minutes, and the resultant supernatant was stored at −80° C. before being assayed for COX activity.
COX activity was assayed as PGE2 formed/μg protein/time using an ELISA to detect the prostaglandin released. CHAPS-solubilized insect cell membranes containing the appropriate COX enzyme were incubated in a potassium phosphate buffer (50 mM, pH 8.0) containing epinephrine, phenol, and heme with the addition of arachidonic acid (10 μM). […] The PGE2 formed was measured by standard ELISA technology (Cayman Chemical).

| IC50 [2] | Structure (SMILES) | ANALGESIA % Inhibition @ 3 mpk [1] |
| --- | --- | --- |
|  | CS(=O)(=O)c1ccc(-c2csc(Br)c2-c2ccc(F)cc2)cc1 [Example 2, 4-(4-Methylsulfonylphenyl)-3-(4-fluorophenyl)-2-bromothiophene] | 0* % |
| < 100 nM | Cc1cc(F)ccc1-c1cscc1-c1ccc(S(C)(=O)=O)cc1 [Example 15, 3-(4-Methylsulfonylphenyl)-4-(2-methyl-4-fluorophenyl) thiophene] |  |
